Patent US20100168125A1, “INDOLIZINES AND AZA-ANALOG DERIVATIVES THEREOF AS CNS ACTIVE COMPOUNDS” (priority 2007, published 2010)
pKi: −log10 of the molar value. Like-named read-outs stand apart in the source and are kept apart here.

Columns and labels:
5-HT2 receptor = target: T1, 5-HT2 receptor (Sus scrofa, UniProt P50129); assay: radioligand binding, porcine cortical membranes, [^3H]ketanserin; details: porcine cortical membranes, [^3H]ketanserin
T1 construct: membrane preparations from porcine cortical material; from tissue; host or cells: porcine cerebral cortex membranes

5-HT1A receptor = target: T2, 5-HT1A receptor (Sus scrofa, UniProt A0A4X1UTF5); assay: radioligand binding, porcine cortical membranes, [^3H]8-OH-DPAT and [^3H]WAY 100635; details: porcine cortical membranes
T2 construct: membrane preparations from porcine cortical material; from tissue; host or cells: porcine cerebral cortex membranes
T2 sequence (A0A4X1UTF5 1-422): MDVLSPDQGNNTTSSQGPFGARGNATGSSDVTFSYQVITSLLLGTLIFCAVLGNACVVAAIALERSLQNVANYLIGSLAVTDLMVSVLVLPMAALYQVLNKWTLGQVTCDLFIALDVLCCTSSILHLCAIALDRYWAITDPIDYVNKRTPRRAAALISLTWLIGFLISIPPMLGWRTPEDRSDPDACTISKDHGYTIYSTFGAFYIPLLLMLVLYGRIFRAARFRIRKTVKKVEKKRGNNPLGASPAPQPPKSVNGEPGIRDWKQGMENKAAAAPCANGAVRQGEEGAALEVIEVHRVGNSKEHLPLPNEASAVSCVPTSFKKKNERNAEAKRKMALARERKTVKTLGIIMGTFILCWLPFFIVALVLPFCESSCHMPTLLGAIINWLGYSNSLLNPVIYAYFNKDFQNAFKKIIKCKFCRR

human D2long receptor = target: T3, human D2long receptor (Homo sapiens, UniProt P14416); assay: radioligand binding with [^3H]spiperone, D2long; details: [^3H]spiperone, CHO membranes, mean of 2 to 4 experiments; read-out: Ki D2lo
T3 construct: expressed in transfected cells; host or cells: Chinese hamster ovary (CHO) cells, membranes
Method: (§1) For the determination of binding affinity to the receptors of the dopamine D2 family membranes were established carrying the human D2long, D2short, D3 or D4.4 receptor subtype expressed in Chinese hamster ovary cell lines. In principle, the binding experiments started when incubating an appropriate amount of membrane with the radioligand [^3H]spiperone and the particular test compounds diluted in a wide range of different concentrations from subnanomolar up to micromolar.

[1] = target: dopamine D2short receptor (Homo sapiens, UniProt P14416); assay: [^35S]GTPγS-incorporation assay, intrinsic activity
human D3 receptor = target: T4, human D3 receptor (Homo sapiens, UniProt P35462); assay: radioligand binding with [^3H]spiperone, D3; details: [^3H]spiperone, CHO membranes, mean of 2 to 4 experiments
T4 construct: expressed in transfected cells; host or cells: Chinese hamster ovary (CHO) cells, membranes
Method: as §1

human D4.4 receptor = target: T5, human D4.4 receptor (Homo sapiens, UniProt P21917); assay: radioligand binding with [^3H]spiperone, D4.4; details: [^3H]spiperone, CHO membranes, mean of 2 to 4 experiments
T5 construct: expressed in transfected cells; host or cells: Chinese hamster ovary (CHO) cells, membranes
T5 sequence (P21917 1-419): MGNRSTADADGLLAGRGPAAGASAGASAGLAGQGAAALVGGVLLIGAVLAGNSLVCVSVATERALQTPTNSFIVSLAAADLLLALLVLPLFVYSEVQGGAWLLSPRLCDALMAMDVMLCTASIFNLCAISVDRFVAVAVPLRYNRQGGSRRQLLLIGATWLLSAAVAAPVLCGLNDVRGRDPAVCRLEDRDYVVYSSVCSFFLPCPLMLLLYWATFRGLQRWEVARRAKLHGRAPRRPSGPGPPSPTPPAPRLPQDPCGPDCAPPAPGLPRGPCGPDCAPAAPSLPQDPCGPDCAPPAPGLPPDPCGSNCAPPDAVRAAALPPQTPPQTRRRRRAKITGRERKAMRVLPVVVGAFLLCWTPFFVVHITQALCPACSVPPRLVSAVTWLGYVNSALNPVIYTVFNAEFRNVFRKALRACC
Method: as §1

human D2short receptor = target: T6, human D2short receptor (Homo sapiens, UniProt P14416); assay: radioligand binding with [^3H]spiperone, D2short; details: [^3H]spiperone, CHO membranes, mean of 2 to 4 experiments; read-out: Ki D2sh
T6 construct: expressed in transfected cells; host or cells: Chinese hamster ovary (CHO) cells, membranes
Method: as §1

[2] = read-out: D2short: [^35S]GTPγS intrinsic activity, % activity of quinpirol

T3 sequence (P14416 whole entry): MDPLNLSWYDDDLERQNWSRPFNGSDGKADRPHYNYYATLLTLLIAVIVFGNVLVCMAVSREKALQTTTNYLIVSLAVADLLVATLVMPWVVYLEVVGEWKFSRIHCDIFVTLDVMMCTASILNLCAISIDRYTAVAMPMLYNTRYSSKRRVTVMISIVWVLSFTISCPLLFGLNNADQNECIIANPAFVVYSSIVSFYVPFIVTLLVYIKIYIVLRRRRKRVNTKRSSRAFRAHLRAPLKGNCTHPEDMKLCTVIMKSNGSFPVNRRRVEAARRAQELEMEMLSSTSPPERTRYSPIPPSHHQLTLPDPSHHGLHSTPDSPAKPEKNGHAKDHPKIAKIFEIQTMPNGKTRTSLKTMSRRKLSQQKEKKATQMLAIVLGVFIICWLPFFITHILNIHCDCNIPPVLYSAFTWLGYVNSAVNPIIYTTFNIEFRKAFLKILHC
T1 sequence (P50129 whole entry): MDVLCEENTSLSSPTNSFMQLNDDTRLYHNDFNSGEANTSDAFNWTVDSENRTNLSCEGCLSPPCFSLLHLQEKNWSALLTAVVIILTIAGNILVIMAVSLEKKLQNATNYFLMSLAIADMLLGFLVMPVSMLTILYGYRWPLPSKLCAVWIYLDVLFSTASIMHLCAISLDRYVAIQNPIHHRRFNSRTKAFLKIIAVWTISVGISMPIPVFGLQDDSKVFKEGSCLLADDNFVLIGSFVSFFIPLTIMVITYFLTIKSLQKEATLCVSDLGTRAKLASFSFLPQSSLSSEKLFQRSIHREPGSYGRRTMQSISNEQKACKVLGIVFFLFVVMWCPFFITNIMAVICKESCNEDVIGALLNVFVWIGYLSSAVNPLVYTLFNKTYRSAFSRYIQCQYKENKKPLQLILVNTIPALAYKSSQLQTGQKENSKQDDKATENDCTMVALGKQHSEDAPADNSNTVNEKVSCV
T6 sequence (P14416 1-414 isoform P14416-2): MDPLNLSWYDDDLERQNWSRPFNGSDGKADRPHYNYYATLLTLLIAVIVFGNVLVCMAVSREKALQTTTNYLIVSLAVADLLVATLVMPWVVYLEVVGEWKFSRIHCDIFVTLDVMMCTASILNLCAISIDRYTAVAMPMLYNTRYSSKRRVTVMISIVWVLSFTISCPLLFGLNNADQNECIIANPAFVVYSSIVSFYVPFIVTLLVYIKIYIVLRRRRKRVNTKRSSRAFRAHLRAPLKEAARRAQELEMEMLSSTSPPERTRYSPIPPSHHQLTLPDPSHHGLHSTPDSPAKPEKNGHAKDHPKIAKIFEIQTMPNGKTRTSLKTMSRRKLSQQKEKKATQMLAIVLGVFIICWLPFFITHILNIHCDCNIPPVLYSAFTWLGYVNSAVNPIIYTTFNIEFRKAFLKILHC
dopamine D2short receptor, sequence (P14416 1-414 isoform P14416-2): as above
T4 sequence (P35462 whole entry): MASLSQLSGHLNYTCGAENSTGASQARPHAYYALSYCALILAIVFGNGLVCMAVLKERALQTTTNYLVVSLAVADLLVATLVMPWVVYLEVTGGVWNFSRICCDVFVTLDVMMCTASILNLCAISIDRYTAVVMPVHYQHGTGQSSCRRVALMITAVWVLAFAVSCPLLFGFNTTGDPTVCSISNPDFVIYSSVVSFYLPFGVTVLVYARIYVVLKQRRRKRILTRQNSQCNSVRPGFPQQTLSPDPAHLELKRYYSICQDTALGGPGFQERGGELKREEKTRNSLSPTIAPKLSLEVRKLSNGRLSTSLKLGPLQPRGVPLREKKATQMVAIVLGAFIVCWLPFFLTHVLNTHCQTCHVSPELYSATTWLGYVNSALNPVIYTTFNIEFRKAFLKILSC

Structure (SMILES)	pKi (5-HT2 receptor)	pKi (5-HT1A receptor)	pKi (human D2long receptor)	Emax ([1]; read-out: D2short: [^35S]GTPγS intrinsic activity)	melting point	pKi (human D3 receptor)	pKi (human D4.4 receptor)	pKi (human D2short receptor)	Emax [1, 2]	D2short: [^35S]GTPγS intrinsic activity ([1]; % activity of quinpirol)
Clc1cccc(N2CCN(CCCOCc3ccn4nccc4c3)CC2)c1Cl [Example E13, 5-[3-[4-(2,3-Dichlorophenyl)piperazin-1-yl]propoxymethyl]pyrazolo[1,5-a]pyridine]	6.52 to 7.52	6.52 to 7.52	> 7.52	< 15%	69 °C	> 7.52	6.52 to 7.52	> 7.52		
O=Cc1cnn2ccc(COCCCN3CCN(c4cccc(Cl)c4Cl)CC3)cc12 [Example E14, 5-[3-[4-(2,3-Dichlorophenyl)piperazin-1-yl]propoxymethyl]pyrazolo[1,5-a]pyridine-3-carbaldehyde]	6.52 to 7.52	> 7.52	> 7.52		90 °C	> 7.52	6.52 to 7.52	> 7.52	15 to 40%	
Clc1cccc(N2CCN(CCCCOc3ccn4nccc4c3)CC2)c1Cl [Example E15, 5-[4-[4-(2,3-Dichlorophenyl)piperazin-1-yl]butoxy]pyrazolo[1,5-a]pyridine]	5.52 to 6.52	6.52 to 7.52	6.52 to 7.52		105 °C	> 7.52	6.52 to 7.52	6.52 to 7.52	15 to 40%	
Clc1ccccc1N1CCN(CCCCOc2ccn3nccc3c2)CC1 [Example E17, 5-[4-[4-(2-Chlorophenyl)piperazin-1-yl]butoxy]pyrazolo[1,5-a]pyridine]	5.52 to 6.52	6.52 to 7.52	> 7.52		163 °C	> 7.52	6.52 to 7.52	> 7.52	15 to 40%	
COc1ccc(N2CCN(CCCCOc3ccn4nccc4c3)CC2)cc1 [Example E18]	5.52 to 6.52	6.52 to 7.52	< 5.52		111 °C	6.52 to 7.52	5.52 to 6.52	5.52 to 6.52	< 15%	
Clc1ccc(N2CCN(CCCCOc3ccn4nccc4c3)CC2)cc1 [Example E19, 5-[4-[4-(4-Chlorophenyl)piperazin-1-yl]butoxy]pyrazolo[1,5-a]pyridine]	5.52 to 6.52	6.52 to 7.52	6.52 to 7.52		125 °C	6.52 to 7.52	6.52 to 7.52	6.52 to 7.52	15 to 40%	
Oc1ccc(N2CCN(CCCCOc3ccn4nccc4c3)CC2)cc1 [Example E20, 5-[4-[4-(4-Hydroxyphenyl)piperazin-1-yl]butoxy]pyrazolo[1,5-a]pyridine]	5.52 to 6.52	< 5.52	6.52 to 7.52		124 °C	6.52 to 7.52	5.52 to 6.52	6.52 to 7.52	15 to 40%	
O=Cc1cnn2ccc(OCCCCN3CCN(c4ccccc4Cl)CC3)cc12 [Example E23, 5-[4-[4-(2-Chlorophenyl)piperazin-1-yl]butoxy]pyrazolo[1,5-a]pyridine-3-carbaldehyde]	5.52 to 6.52	> 7.52	> 7.52		116 °C	> 7.52	> 7.52	> 7.52	15 to 40%	
COc1ccc(N2CCN(CCCCOc3ccn4ncc(C=O)c4c3)CC2)cc1 [Example E24, 5-[4-[4-(4-Methoxyphenyl)piperazin-1-yl]butoxy]pyrazolo[1,5-a]pyridine-3-carbaldehyde]	< 5.52	6.52 to 7.52	6.52 to 7.52		114 °C	5.52 to 6.52	5.52 to 6.52	6.52 to 7.52	< 15%	
O=Cc1cnn2ccc(OCCCCN3CCN(c4ccc(Cl)cc4)CC3)cc12 [Example E25]	5.52 to 6.52	6.52 to 7.52	> 7.52		113 °C	6.52 to 7.52	6.52 to 7.52	> 7.52	15 to 40%	
O=Cc1cnn2ccc(OCCCCN3CCN(c4ccc(O)cc4)CC3)cc12 [Example E26, 5-[4-[4-(4-Hydroxyphenyl)piperazin-1-yl]butoxy]pyrazolo[1,5-a]pyridine-3-carbaldehyde]	5.52 to 6.52	6.52 to 7.52	6.52 to 7.52		164 °C	6.52 to 7.52	6.52 to 7.52	> 7.52	40 to 75%	
ON=Cc1cnn2ccc(OCCCCN3CCN(c4ccccc4Cl)CC3)cc12 [Example E32, (s-trans) 5-[4-[4-(2-Chlorophenyl)piperazin-1-yl]butoxy[pyrazolo[1,5-a]pyridine-3-carbaldehyde oxime]	6.52 to 7.52	> 7.52	> 7.52		174 °C	> 7.52	> 7.52	> 7.52	15 to 40%	
ON=Cc1cnn2ccc(OCCCCN3CCN(c4ccccc4Cl)CC3)cc12 [Example E35, (s-cis) 5-[4-[4-(2-Chlorophenyl)piperazin-1-yl]butoxy]pyrazolo[1,5-a]pyridine-3-carbaldehyde oxime]	6.52 to 7.52	> 7.52	> 7.52		160 °C	> 7.52	> 7.52	> 7.52		A (A=Full antagonist (<15%))
N#Cc1cnn2ccc(OCCCCN3CCN(c4ccccc4Cl)CC3)cc12 [Example E38, 5-[4-[4-(2-Chlorophenyl)piperazin-1-yl]butoxy]pyrazolo[1,5-a]pyridine-3-carbonitrile]	6.52 to 7.52	> 7.52	> 7.52		119 °C	> 7.52	> 7.52	> 7.52	15 to 40%	
COC(=O)c1cnn2ccc(OCCCCN3CCN(c4cccc(Cl)c4Cl)CC3)cc12 [Example E39, Methyl 5-[4-[4-(2,3-dichlorophenyl)piperazin-1-yl]butoxy]pyrazolo[1,5-a]pyridine-3-carboxylate]	6.52 to 7.52	> 7.52	> 7.52		73 °C	> 7.52	> 7.52	> 7.52	< 15%	
COC(=O)c1cnn2ccc(OCCCCN3CCN(c4ccccc4OC)CC3)cc12 [Example E40, Methyl 5-[4-[4-(2-methoxyphenyl)piperazin-1-yl]butoxy]pyrazolo[1,5-a]pyridine-3-carboxylate]	6.52 to 7.52	> 7.52	> 7.52		75 °C	> 7.52	> 7.52	> 7.52	15 to 40%	
Clc1cccc(N2CCN(CCCCOc3ccn4ncc(Br)c4c3)CC2)c1Cl [Example E42, 3-Bromo-5-[4-[4-(2,3-dichlorophenyl)piperazin-1-yl]butoxy]pyrazolo[1,5-a]pyridine]	< 5.52	5.52 to 6.52	6.52 to 7.52		132 °C	> 7.52	5.52 to 6.52	6.52 to 7.52	15 to 40%	
Clc1cccc(N2CCN(CCCCOc3ccn4ncc(Cl)c4c3)CC2)c1Cl [Example E45, 3-Chloro-5-[4-[4-(2,3-dichlorophenyl)piperazin-1-yl]butoxy]pyrazolo[1,5-a]pyridine]	5.52 to 6.52	6.52 to 7.52	6.52 to 7.52		133 °C	> 7.52	6.52 to 7.52	6.52 to 7.52	15 to 40%	
